Experimental data from patent publication US20220402917A1, “COMPOUND AS SMALL MOLECULE INHIBITOR PD-1/PD-L1 AND APPLICATION THEREOF” (MEDSHINE DISCOVERY INC., priority 2019, published 2022).
pIC50: −log10 of the molar value.

What was measured:
[1] = target: T1, PD-L1 in MDA-MR-231 cells (Homo sapiens, UniProt Q9NZQ7); test: Effect on expression level of PD-L1 in MDA-MR-231 cells (FACS); type: cell-based; settings: 24 hours incubation, FACS detection of cell surface PD-L1
T1 construct: endogenous in cells; host or cells: MDA-MB-231
Procedure: Experimental Example 2: Using MDA-MR-231 Cells to Detect the Effect of Compounds on the Expression Level of PD-L1
The use of a triple-negative breast cancer cell line (MDA-MB-231) is an indirect method to assess PD-L1 endocytosis. PD-L1 molecules on the cell surface can be degraded by lysosomal and proteasome pathways, and small molecule inhibitors are added to induce PD-L1 endocytosis. After co-incubating small molecules with MDA-MB-231 cells for 24 hours, flow cytometry (Fluorescence-activated Cell Sorting, FACS) is used to detect the content of PD-L1 on the cell surface, which can indirectly reflect the effect of small molecule-induced PD-L1 endocytosis. Flow cytometry (FACS) is used to detect the effect of the compounds of the present disclosure on the expression level of PD-L1 in MDA-MR-231 cells.
Phosphate buffer (DPBS), 1640 medium, penicillin-streptomycin, fetal bovine serum, non-essential amino acids, 2-hydroxy-1-ethanethiol (2-ME), human interferon γ, LIVE/DEAD staining solution, staining buffer, fixation buffer, 0.25% trypsin, EDTA, anti-human PD-L1, anti-human PD-L1 isotype.
1640 complete medium preparation: 50 mL of fetal bovine serum, 5 mL of non-essential amino acids, 5 mL of penicillin-streptomycin and 0.5 mL of 2-hydroxy-1-ethanethiol were added to 439.5 mL of 1640 medium, and evenly mixed.
10 mM EDTA preparation: 1 mL of 0.5M EDTA was added to 49 mL of DPBS, and evenly mixed.
1) MDA-MB-231 cell counting and plating: The culture flask was taken out, the medium was removed and the culture flask was rinsed once with DPBS. After the culture flask was rinsed, 3 mL of 0.25% trypsin was added to the culture flask and the culture flask was placed in a 37° C. incubator for 1.5 min. The culture flask was taken out, 9 mL of 1640 complete medium was added to stop the reaction, the cells was transferred to a 50 mL centrifuge tube, and centrifuged at 1000 rpm for 5 min at 37° C. An appropriate volume of medium was added to re-suspend the cells according to the number of cells, and the number of cells was counted with a cell counter. The cell concentration was adjusted to 5×10^5 cells/mL with medium. Planking: A volume of 200 μL of cell suspension was added to each well of a 96-well plate, ensure that the number of cells in each well was 1×10^5. The cells were incubated overnight in an incubator. 2) Drug incubation: 100-fold dilution of compounds were prepared, and the drug was subjected to a 5-fold gradient dilution. 2 μL of each 100-fold dilution of compounds were added to each well. The cells were incubated in an incubator at 37° C. for 24 hours. 3) PD-L1 cell staining and FACS detection: the culture plate was taken out and the supernatant medium was discarded. The cells were washed once with 200 μL 1×PBS. 100 μL of EDTA (final concentration of 10 mM) was added to the cell suspension, and the cell suspension was treated at 37° C. for 10 min. Then after the cell suspension was centrifuged at 1500 rpm for 5 min, the cell suspension was washed once with 200 μL of staining solution. Staining: anti-human PD-L1 (2 μL per well) and LIVE/DEAD staining solution (1:1000) were diluted in staining solution, 50 μL of the staining solution was added to each well, and the staining was conducted at 4° C. for 30 min. Then the solution was washed twice with 200 μL of staining solution. Fixation: 100 μL of fixing solution was added to each well, the fixation was conducted at 4° C. for 15 min. The solution was then washed twice with 200 μL of staining solution, and 150 μL of solution was added to re-suspend the cells, followed by FACS detection.
Table 2 provides the effects of the compounds of the examples of the present disclosure on the expression level of PD-L1 in MDA-MR-231 cells.

[2] = target: T2, PD1/PD-L1 (Homo sapiens, UniProt Q9NZQ7); test: PD-1/PD-L1 homogeneous time-resolved fluorescence (HTRF) binding experiment; parameters: purchased BPS Biosciences; settings: HTRF (TR-FRET), PD-L1-biotin, PD1-Eu
Text: Experimental Example 1: PD-1/PD-L1 Homogenouse Time-Resolved Fluorescence (HTRF) Binding Experiment
When the PD-1 molecule as the donor is very close to the PD-L1 molecule as the acceptor, the donor molecule will transfer the energy to the receptor molecule, which in turn causes the receptor molecule to emit fluorescence. The ability of small molecules to prevent the binding of PD-L1 to PD-1 can be tested by detecting the intensity of fluorescence. A homogeneous time-resolved fluorescence (HTRF) binding experiment is used to detect the ability of the compounds of the present disclosure to inhibit the binding of PD-1/PD-L1.
PD1/PD-L1 TR-FRET detection kit was purchased from BPS Biosciences. Nivo multi-label analyzer (PerkinElmer).
PD1-Eu, Dye-labeled acceptor, PD-L1-biotin and compounds to be tested were diluted with the buffer in the kit. The compounds to be tested were subjected to 5-fold dilution to eight concentration gradients with a row gun. That is, from 40 μM to 0.5 nM, the DMSO concentration was 4%, and a double-well experiment was set up. 5 μL of inhibitor with each concentration gradient were added to the microwell plate, and 5 μL buffer containing 4% DMSO and 5 μL PD-L1-biotin (PD-L1-biotin) (60 nM) were added into well with the maximum signal (Max) and the well with the minimum signal (Min), only 5 μL of buffer was added to the well with the minimum signal (Min), and the incubation was conducted at 25° C. for 20 minutes. After the incubation was completed, 5 μL of diluted PD1-Eu (10 nM) and […] were added to each well. The reaction system was placed at 25° C. for 90 minutes. The TR-FRET signal was read by a multi-label analyzer after the reaction was completed.
(§1) Using the equation (sample−Min)/(Max−Min)×100% to convert the raw data into inhibition rate, and the IC50 value can be obtained by curve fitting with four parameters (obtained from log(inhibitor) vs. response—Variable slope mode in GraphPad Prism). Table 1 provides the inhibitory activity of the compounds of the examples of the present disclosure on PD1/PD-L1 binding
Target sequence in this assay (Q9NZQ7 19-239 limits assumed): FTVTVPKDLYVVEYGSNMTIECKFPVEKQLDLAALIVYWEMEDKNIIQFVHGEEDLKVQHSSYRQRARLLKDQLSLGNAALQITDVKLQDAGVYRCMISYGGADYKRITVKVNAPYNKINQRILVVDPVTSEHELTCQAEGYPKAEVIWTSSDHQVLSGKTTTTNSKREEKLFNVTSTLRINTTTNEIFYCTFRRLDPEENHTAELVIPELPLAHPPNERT

[3] = target: T2, PD1/PD-L1; test: NFAT activity test (TCR Activitor/PD-L1 CHO cells with PD-1/NFAT Reporter-Jurkat cells); type: cell-based; parameters: host or cells: TCR Activitor/PD-L1 CHO cells; PD-1/NFAT Reporter-Jurkat cells; settings: TCR Activitor/PD-L1 CHO cells + PD-1/NFAT Reporter-Jurkat cells, 5 hours, luciferase; for pIC50: read-out: IC50, inhibitory activity on PD1/PD-L1 binding (NFAT activity test)
Text: Experimental Example 3: NFAT Activity Test
The engineered T cell expresses PD-1 molecules and T cell receptor (TCR) on the surface, which can activate the NFAT signaling pathway of T cells after co-culturing with engineered antigen presenting cells (APCs). Expression of PD-L1 molecules on APCs can effectively attenuate the NFAT signaling pathway in T cells. PD-L1 inhibitors can be used effectively block the PD-1/PD-L1 regulatory mechanism, thereby reversing the weakened NFAT signaling pathway. After being pretreated with APC, the small molecule is co-cultured with T cells, then the expression of luciferase was detected to indirectly reflect the activation of the NFAT pathway in T cells.
The PD1/PD-L1 NFAT detection kit was purchased from BPS Biosciences. Birght-Glo reagent was purchased from Promega. Nivo multi-label analyzer (PerkinElmer).
The TCR Activitor/PD-L1 CHO cells with a growth confluence of 80% were plated into the plate at 35,000 cells per well and placed in a 37° C. cell culture incubator overnight; the compounds to be tested were diluted 5-fold to the 8th concentration, from 20 μM to 0.25 nM, and the DMSO concentration was 2%, a double-well experiment was set up. The TCR Activitor/PD-L1 CHO cell supernatant was discarded, 50 μl of compound working solution was added to each well, incubated at 37° C. for 30 minutes; after the incubation was completed, 50 μL of PD-1/NFAT Reporter-Jurkat cell suspension with a concentration of 4*10^5 cells/mL was added to each well, incubated at 37° C. for 5 hours. After the incubation was completed, 100 μL Bright-Glo was added to each well, and after mixing, the chemiluminescence signal was detected by a Nivo multi-label analyzer.
as §1, with “Table 3” for “Table 1”, “PD1/PD-L1 binding.” for “PD1/PD-L1 binding”
Target sequence in this assay (Q9NZQ7 19-290): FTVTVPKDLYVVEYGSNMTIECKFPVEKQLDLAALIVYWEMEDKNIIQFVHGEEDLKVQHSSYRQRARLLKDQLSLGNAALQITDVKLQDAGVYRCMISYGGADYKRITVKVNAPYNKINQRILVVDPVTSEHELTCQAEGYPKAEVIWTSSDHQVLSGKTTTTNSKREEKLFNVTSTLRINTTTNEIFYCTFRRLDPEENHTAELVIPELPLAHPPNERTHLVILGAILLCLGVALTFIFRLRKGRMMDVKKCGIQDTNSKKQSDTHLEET

[4] = Pharmacokinetic test in C57BL/6 mice; type: in vivo; settings: mouse, plasma, male C57BL/6 mice
Procedure: Experimental Example 4: Pharmacokinetic Test
Experimental purpose: To study the pharmacokinetics of compounds in C57BL/6 mice.
Experimental materials: C57BL/6 mice (male, 8 weeks old, body weight 25 g-30 g)
Experimental operation: The pharmacokinetic characteristics of rodents after intravenous (IV) and oral (PO) administration of compounds were tested in standard protocols. In the experiment, the candidate compounds were formulated into 1 mg/mL clear solutions, and administered to mice via a single intravenous injection and oral administration. The vehicle of intravenous and oral administration was 5% DMSO/5% polyethylene glycol 15-hydroxystearate (Solutol)/90% aqueous solution. Four male C57BL/6 mice were used in the experiment, wherein two mice were administered intravenously at a dose of 1 mg/kg, and the plasma samples were collected 0.0833, 0.25, 0.5, 1, 2, 4, 6, 8 and 24 h after administration, the other two mice were given oral gavage at a dose of 10 mg/kg, and the plasma samples were collected 0.25, 0.5, 1, 2, 4, 6, 8, and 24 h after administration. Whole blood samples within 24 hours were collected, centrifuged at 3000 g for 15 minutes, and the supernatant was separated to obtain plasma samples. Acetonitrile solution containing internal standard was added thereto to precipitate proteins, the mixture was thoroughly mixed and centrifuged to obtain the supernatant for injection. The plasma concentration was quantified by LC-MS/MS analysis method, and the pharmacokinetic parameters were calculated, such as peak concentration (Cmax), clearance (CL), half-life (T1/2), […] (Vdss), area under the drug-time curve (AUC0-last), bioavailability (F) and so on.

T1 sequence (Q9NZQ7 19-290): as above

SMILES	pIC50 [1]	pIC50 [2]	Maximum effect (induction fold) [3] [induction fold]	pIC50 [3]	bioavailability ([4]; PO 10 mg/kg vs IV 1 mg/kg, read-out: Bioavailability F) [%]	Cmax ([4]; IV 1 mg/kg, PO 10 mg/kg (route not given for Cmax), read-out: Peak concentration Cmax) [nM]	clearance ([4]; IV 1 mg/kg, read-out: Clearance CL) [mL/min/kg]	half-life ([4]; IV 1 mg/kg, read-out: Half-life T1/2 (IV) (converted)) [h]	Vd ([4]; IV 1 mg/kg, read-out: Tissue distribution Vdss) [L/kg]	AUC(0-t) ([4]; PO 10 mg/kg, read-out: Area under the drug-time curve AUC0-last PO) [µM·h]
Cc1cc(C(=O)Nc2cccc(-c3cccc(NC(=O)c4ccc(CNCCO)cn4)c3C)c2Cl)nc2c1CCN(C1CCC(O)CC1)C2 (stereo not shown) [Compound 15]	7.53	8.05	3.80	7.47						
Cc1cc(C(=O)Nc2cccc(-c3cccc(NC(=O)c4ccc(CNCCO)cn4)c3C)c2C)nc2c1CN(CCO)CC2 [Compound 2]		8.68								
Cc1cc(C(=O)Nc2cccc(-c3cccc(Nc4nc(C(F)F)nc5cc(CN6CC[C@@H](O)C6)cnc45)c3C)c2Cl)nc2c1CCN(CC(=O)O)C2 [Compound 23]	9.66	8.43	4.84	7.74						
Cc1cc(C(=O)Nc2cccc(-c3cccc(NC(=O)c4ccc(CNCCO)cn4)c3C)c2Cl)nc2c1CCN(C(CO)CO)C2 [Compound 11]	7.60	8.34	3.81	7.37						
Cc1cc(C(=O)Nc2cccc(-c3cccc(NC(=O)c4ccc(CNCCO)cn4)c3C)c2C#N)nc2c1CCN(CCO)C2 [Compound 7]		8.49	3.38	7.42						
Cc1cc(C(=O)Nc2cccc(-c3cccc(NC(=O)c4ccc(CNCCO)cn4)c3C)c2C)nc2c1CCN(CCO)C2 [Compound 1]	7.20	8.68	3.71	7.46						
Cc1cc(C(=O)Nc2cccc(-c3cccc(NC(=O)c4ccc(CNCCO)cn4)c3C)c2Cl)nc2c1CCN(C1CCC(C)(C(=O)O)CC1)C2 (stereo not shown) [Compound 20]		8.45	3.43	7.77						
Cc1cc(C(=O)Nc2cccc(-c3cccc(NC(=O)c4ccc(CNCCO)cn4)c3Cl)c2C)nc2c1CCN(CCO)C2 [Compound 6]	7.03	8.33	3.54	7.84						
Cc1cc(C(=O)Nc2cccc(-c3cccc(NC(=O)c4ccc(CNCCO)cn4)c3C)c2Cl)nc2c1CCN(CC(=O)O)C2 [Compound 17]	9.12	8.83	4.23	7.60						
COc1cc(C(=O)Nc2cccc(-c3cccc(-c4cnc(CN5CC(C)(O)C5)c(OC)n4)c3Cl)c2Cl)nc2c1CCN(CCO)C2 [Compound 42]	8.02		4.39	7.63	61.6	260	36.6	16.4	40.8	3.1
